Reference: patent US7112585B2, “Pyrimidine derivatives as corticotropin releasing factor inhibitors” (Bristol-Myers Squibb Company, priority 2003, dated 2006)

What was measured:
[1] = biological target: T1, cloned human CRF-R1 receptors (Homo sapiens, UniProt P34998); assay: CRF-R1 Receptor Binding Assay (inhibition of 125I-ovine-CRF binding to cell membranes); parameters: key to activity: a: Ki≦100 nM; b: 100 nM<Ki≦500 nM; c: 500 nM<Ki≦5,000 nM; activity reported in percent inhibition at 10 μM; details: CRF assays; class d = activity only as percent inhibition at 10 μM (value not given)
T1 construct: the coding region was amplifies by PCR from start to stop codons; expressed in transfected cells; host or cells: 293EBNA (HEK 293 EBNA-1) cells, episomal vector phchCRFR, hygromycin-selected pool; membranes
T1 sequence (P34998 24-415): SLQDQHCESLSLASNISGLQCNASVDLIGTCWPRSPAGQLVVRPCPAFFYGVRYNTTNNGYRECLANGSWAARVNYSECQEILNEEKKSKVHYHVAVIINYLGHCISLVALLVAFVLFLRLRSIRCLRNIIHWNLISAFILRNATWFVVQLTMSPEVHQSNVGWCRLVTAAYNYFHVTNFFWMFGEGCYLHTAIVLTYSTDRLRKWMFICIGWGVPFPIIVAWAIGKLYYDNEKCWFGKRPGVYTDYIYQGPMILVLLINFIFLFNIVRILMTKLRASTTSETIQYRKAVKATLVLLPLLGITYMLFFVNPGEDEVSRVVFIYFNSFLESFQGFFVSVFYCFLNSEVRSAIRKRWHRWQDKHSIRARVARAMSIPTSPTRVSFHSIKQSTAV
From the text: CRF-R1 Receptor Binding Assay for the Evaluation of Biological Activity
The following is a description of the isolation of cell membranes containing cloned human CRF-R1 receptors for use in a standard binding assay as well as a description of the assay itself.
Messenger RNA was isolated from human hippocampus. The mRNA was isolated from human hippocampus. The mRNA was reverse transcribed using oligo (dt) 12–18 and the coding region was amplifies by PCR from start to stop codons. The resulting PCR fragment was cloned into the EcORV site of pGEMV, from whence the insert was reclaimed using XhoI+XbaI and cloned into the XhoI+XbaI sites of vector pm3as (which contains a CMV promoter, the SV′t′ splice and early poly A signals, an Eptein-Barr viral origin of replication, and a hygromycin selectable marker). The resulting expression vector, called phchCRFR was transfected in 293EBNA cells and cells retaining the episome were selected in the presence of […] hygromycin. Cells surviving 4 weeks of selection in hygromycin were pooled, adapted to growth in suspension and used to generate membranes for the binding assay described below. Individual aliquots containing approximately 1×10^8 of the suspended cells were then centrifuged to form a pellet and frozen. For the binding assay a frozen pellet described above containing 293EBNA cells transfected with hCRFR1 receptors is homogenized in 10 mL of ice cold tissue buffer (50 mM HEPES buffer pH 7.0, containing 10 MM MgCl2, 2 mM EGTA, 1 μg/mL apotinin, 1 μg/mL leupeptin and 1 μg/mL pepstatin). The homoginate is centrifuged at 40,000×g for 12 min and the resulting pellet rehomogenized in 10 mL of tissue buffer. After another centrifugation at 40,000×g for 12 min, the pellet is resuspended to a protein concentration of 360 μg/mL to be used in the assay.
Binding assays are performed in 96 well plates; each well having a 300 μL capacity. To each well is added 50 μL of test drug dilutions (final concentration of drugs range from 10^−10–10^−5 M), 100 μL of ^125I-ovine-CRF (^125I-o-CRF) (final concentration 150 pM) and 150 μL of the cell homoginate described above. Plates are then allowed to incubate at room temperature for 2 hours before filtering the incubate over GF/F filters (presoaked with 0.3% polyethyleneimine) using an appropriate cell harvester. Filters are rinsed 2 times with ice cold assay buffer before removing individual filters and assessing them for radioactivity on a gamma counter.
Curves of the inhibition of ^125I-o-CRF binding to cell membranes at various dilutions of test drug are analyzed by the iterative curve fitting program LIGAND [P. J. Munson and D. Rodbard, Anal. Biochem., 107:220 (1980), which provides Ki values for inhibition which are then used to assess biological activity. […]
Messenger RNA was isolated from human hippocampus. The mRNA was isolated from human hippocampus. The mRNA was reverse transcribed using oligo (dt) 12–18 and the coding region was amplifies by PCR from start to stop codons. The resulting PCR fragment was cloned into the EcORV site of pGEMV, from whence the insert was reclaimed using XhoI+XbaI and cloned into the XhoI+XbaI sites of vector pm3as (which contains a CMV promoter, the SV′t′ splice and early poly A signals, an Eptein-Barr viral origin of replication, and a hygromycin selectable marker). The resulting expression vector, called phchCRFR was transfected in 293EBNA cells and cells retaining the episome were selected in the presence of […] hygromycin. Cells surviving 4 weeks of selection in hygromycin were pooled, adapted to growth in suspension and used to generate membranes for the binding assay described below. […]
A frozen pellet described above containing 293EBNA cells transfected with hCRFR1 receptors or the rat frontal cortex tissue dissected from frozen rat brains was prepared as the source of membranes expressing CRF1 receptors used in binding assays. […]

Row | Compound | melting point [°C] | Ki [1] [nM] | activity [1]
1 | COc1ccc(S(=O)(=O)c2cnc(C)nc2Nc2c(C)cc(C)cc2C)cc1 [Example 1, [5-(4-Methoxybenzenesulfonyl)-2-methylpyrimidin-4-yl]-(2,4,6-trimethylphenyl)-amine] | 153 to 155 | 100 to 500 | 
2 | Cc1cc(C)c(Nc2nc(C)ncc2S(=O)(=O)c2ccc(O)cc2)c(C)c1 [Example 2, 4-[2-Methyl-4-(2,4,6-trimethylphenylamino)-pyrimidine-5-sulfonyl]-phenol] | 246 to 248 | 500 to 5000 | 
3 | CC(=O)Oc1ccc(S(=O)(=O)c2cnc(C)nc2Nc2c(C)cc(C)cc2C)cc1 [Example 3, Acetic acid 4-[2-methyl-4-(2,4,6-trimethylphenylamino)-pyrimidine-5-sulfonyl]-phenyl ester] | 142 to 144 | 500 to 5000 | 
4 | Cc1cc(C)c(Nc2nc(C)ncc2S(=O)(=O)c2ccc(OCc3ccccc3)cc2)c(C)c1 [Example 4, [5-(4-Benzyloxybenzenesulfonyl)-2-methylpyrimidin-4-yl]-(2,4,6-trimethylphenyl)-amine] | 166 to 168 | ≤ 100 | 
5 | COc1ccc(Nc2nc(C)ncc2S(=O)(=O)c2ccc(OCc3ccccc3)cc2)c(C)c1 [Example 5, [5-(4-Benzyloxybenzenesulfonyl)-2-methylpyrimidin-4-yl]-(4-methoxy-2-methylphenyl)-amine] | 110 to 114 | 100 to 500 | 
6 | COc1ccc(Nc2nc(C)ncc2S(=O)(=O)c2ccc(OCc3ccccc3)cc2)c(C)n1 [Example 6, [5-(4-Benzyloxybenzenesulfonyl)-2-methylpyrimidin-4-yl]-(6-methoxy-2-methylpyridin-3-yl)-amine] | 160 to 165 |  | d
7 | Cc1cc(C)c(Nc2nc(C)ncc2S(=O)(=O)c2cccc(OCc3ccccc3)c2)c(C)c1 [Example 7, [5-(3-Benzyloxybenzenesulfonyl)-2-methylpyrimidin-4-yl]-(2,4,6-trimethylphenyl)-amine] | 112 to 115 | 100 to 500 | 
8 | COc1ncc(S(=O)(=O)c2cccc(OCc3ccccc3)c2)c(Nc2c(C)cc(C)cc2C)n1 [Example 8, [5-(3-Benzyloxybenzenesulfonyl)-2-methoxypyrimidin-4-yl]-(2,4,6-trimethylphenyl)-amine] |  |  | d
9 | Cc1cc(C)c(Nc2nc(N(C)C)ncc2S(=O)(=O)c2cccc(OCc3ccccc3)c2)c(C)c1 [Example 9, 5-(3-Benzyloxybenzenesulfonyl)-N^2,N^2-dimethyl-N^4-(2,4,6-trimethylphenyl)-pyrimidine-2,4-diamine] | 52 to 58 | 500 to 5000 | 
10 | COc1ccccc1COc1ccc(S(=O)(=O)c2cnc(C)nc2Nc2c(C)cc(C)cc2C)cc1 [Example 10, {5-[4-(2-Methoxybenzyloxy)-benzenesulfonyl]-2-methylpyrimidin-4-yl}-(2,4,6-trimethylphenyl)-amine] | 200 to 202 | ≤ 100 | 
11 | COc1cc(COc2ccc(S(=O)(=O)c3cnc(C)nc3Nc3c(C)cc(C)cc3C)cc2)cc(OC)c1 [Example 11, {5-[4-(3,5-Dimethoxybenzyloxy)-benzenesulfonyl]-2-methylpyrimidin-4-yl}-(2,4,6-trimethylphenyl)-amine] |  | ≤ 100 | 
12 | COc1ccc(Nc2nc(C)ncc2S(=O)(=O)c2ccc(OCc3ccccc3)cc2)c(OC)c1 [Example 12, [5-(4-Benzyloxybenzenesulfonyl)-2-methylpyrimidin-4-yl]-(2,4-dimethoxyphenyl)-amine] |  |  | d
13 | COc1ccc(S(=O)(=O)c2cnc(C)nc2Cc2c(C)cc(C)cc2C)cc1 [Example 13, 5-(4-Methoxyoxybenzenesulfonyl)-2-methyl-4-(2,4,6-trimethylbenzyl)-pyrimidine] | 150 to 152 | 100 to 500 | 
14 | Cc1cc(C)c(Nc2nc(C)ncc2S(=O)(=O)c2ccc(N3CCN(C)CC3)cc2)c(C)c1 [Example 17, {2-Methyl-5-[4-(4-methylpiperazin-1-yl)-benzenesulfonyl]-pyrimidin-4-yl}-(2,4,6-trimethylphenyl)-amine] |  |  | d
